We go through 22 molecules from US4525458A, “Method for the production of sphingomyelinase” (priority 1981, dated 1985).

For the first data set, the system named is sphingomyelinase. The experiment in a line: Effect of metal ions on enzymatic activity. In kind it is biochemical, Streptomyces sp. A 9107. Conditions: additive 1 mM; no addition = 100. As for the experimental part: (§1) After preincubating 0.45 ml of the following reaction mixture at 37° C., 50 μl of an enzyme solution is added to start the reaction. After just 10 minutes, 0.1 ml of 0.1M EDTA is added to stop the reaction.
(§2) The formed phosphorylcholine is led to a color development system through a H2 O2 by using the following reaction mixture, and absorbance at 500 nm is measured.
(§3) The indication of enzymatic activity is calculated from the following equation with activity to produce 1 μmole of phosphorylcholine for 1 minute as one unit:
(§4) wherein ΔA500 nm means a difference in absorbance at 500 nm between at the start of reaction and 10 minutes after the reaction.
Turning to `[Cl][Cu][Cl]` [CuCl2], the “Relative activity (%)” value amounted to 19%. In the case of `[Cl][Mn][Cl]` [MnCl2], the “Relative activity (%)” value is on record as 236%. On the same count and under the same terms, the value for `[Cl-].[Cl-].[Co+2]` [CoCl2] was 35%; that for `[Cl][Ni][Cl]` [NiCl2] was 12%; that for `[Ba+2].[Cl-].[Cl-]` [BaCl2] was 89%. Still for that read-out and setting: the value for `[Cl-].[Cl-].[Mg+2]` [MgCl2] was 232%; that for `[Ca+2].[Cl-].[Cl-]` [CaCl2] was 48%; that for `[Cl-].[Cl-].[Zn+2]` [ZnCl2] was 3%.

The data set is the same for the next values; noted with them: additive 100 mM; no addition = 100.
With `[Cl-].[K+]` [KCl], the “Relative activity (%)” value amounted to 90%. The same measure, in the same setting: the value for `[Cl-].[Na+]` [NaCl] was 73%; that for `Cl.N` [NH4 Cl] was 79%.

The test system of a further data set is sphingomyelinase. As to the kind of experiment: Substrate specificity. In kind it is biochemical, Streptomyces sp. A 9107. Conditions: as substrate; sphingomyelin = 100. As for the experimental part:
as §1, §2, §3, §4
(10) SUBSTRATE SPECIFICITY
As for Phosphatidyl serine, the “Relative activity (%)” value worked out at 0%. Same read-out and setting: the value for Phosphatidyl ethanolamine was 0%; that for Lysolecithin was 0%; that for Phosphatidyl inositol was 0%. On to Sphingomyelin, for which the “Relative activity (%)” value came out at 100%.

As to Lecithin, the “Relative activity (%)” value worked out at 0%.

System in a further data set: not listed separately
The experiment in a line: Thermal stability (residual activity). Conditions: 23 u/ml in 100 mM Tris-HCl buffer (pH 7.0), heated for 10 minutes. In kind it is physicochemical. As for the experimental part:
An enzyme solution is prepared so that its concentration in 100 mM Tris-HCl buffer (pH 7.0) is 23 u/ml, and measured for the residual activity after heated for 10 minutes at every temperatures shown on the abscissa in FIG. 3. The liquor is kept stable until the treatment at 40° C. for 10 minutes.
Take sphingomyelinase [enzyme]: the “Temperature until which kept stable” value is no more than 40 °C.

System in another data set: not listed separately
As to the kind of experiment: Isoelectric point by electrophoretic method using ampholite.
Conditions: not given
The format is physicochemical. As for the experimental part: It is determined by the electrophoretic method using ampholite, a carrier. The pH obtained is 8.6.
In the case of sphingomyelinase [enzyme], the Isoelectric point was 8.6 pH.

For another data set, the system named is sphingomyelinase. The experiment in a line: Effect of surfactant on enzymatic activity. Conditions: additive 0.1%; no addition = 100. The format is biochemical, Streptomyces sp. A 9107. As for the experimental part: as §1, §2, §3, §4
Regarding `C[C@H](CCC(=O)O)[C@H]1CC[C@H]2[C@@H]3CC[C@@H]4C[C@H](O)CC[C@]4(C)[C@H]3C[C@H](O)[C@]12C` [Sodium deoxycholate], the “Relative activity (%)” value was found to be 16%. The same measure, in the same setting: the value for `CCCCCCCCCCCCOS(=O)(=O)[O-].[Na+]` [Sodium laurylsulfate] was 13%; that for Sodium laurylbenzenesulfonate was 8%; that for Triton X-100 was 358%.

System in a further data set: not listed separately
As to the kind of experiment: Measurement of enzymatic activity (specific activity of preparations). Conditions: 1 unit = 1 μmole phosphorylcholine per minute. In kind it is biochemical. As for the experimental part: as §1, §2, §3, §4
On to sphingomyelinase [enzyme], for which the Specific activity is recorded as 1,050 U/mg.
